Assay results reported in patent US9920069B2, “Compounds for treatment of fluoroquinolone-resistant bacteria” (The Board of Trustees of the University of Illinois, priority 2014, dated 2018).
In brackets after ≈: the same amount, converted by molar mass. Where two headings read alike, the source gives them in different places. Marks after values point to notes of the source that are not given here.

Legend:
[1] = system: MRSA clinical isolate SAU.3017
Method: (§1) Susceptibility testing was performed in triplicate using the microdilution broth method as outlined by the Clinical and Laboratory Standards Institute CLSI^52. MH broth was used.

[2] = system: MRSA clinical isolate SAU.709; assay: microbe, parasite or virus in culture; type: cell-based, S. aureus; details: Staphylococcus aureus, read-out: MIC
Method: as §1

[3] = system: MRSA clinical isolate SAU.495; assay: microbe, parasite or virus in culture; type: cell-based, S. aureus; details: Staphylococcus aureus, read-out: MIC
Method: as §1

[4] = system: MRSA clinical isolate SAU.489; assay: microbe, parasite or virus in culture; type: cell-based, S. aureus; details: Staphylococcus aureus, read-out: MIC
Method: as §1

[5] = system: MRSA clinical isolate SAU.493; assay: microbe, parasite or virus in culture; type: cell-based, S. aureus; details: Staphylococcus aureus, read-out: MIC
Method: as §1

[6] = system: MRSA clinical isolate SAU.491; assay: microbe, parasite or virus in culture; type: cell-based, S. aureus; details: Staphylococcus aureus, read-out: MIC
Method: as §1

[7] = system: MRSA clinical isolate SAU.496; assay: microbe, parasite or virus in culture; type: cell-based, S. aureus; details: Staphylococcus aureus, read-out: MIC
Method: as §1

[8] = system: MRSA clinical isolate SAU.492; assay: microbe, parasite or virus in culture; type: cell-based, S. aureus; details: Staphylococcus aureus, read-out: MIC
Method: as §1

[9] = system: MRSA clinical isolate SAU.494; assay: microbe, parasite or virus in culture; type: cell-based, S. aureus; details: Staphylococcus aureus, read-out: MIC
Method: as §1

[10] = system: MRSA clinical isolate SAU.710; assay: microbe, parasite or virus in culture; type: cell-based, S. aureus; details: Staphylococcus aureus, read-out: MIC
Method: as §1

[11] = system: MRSA clinical isolate SAU.419; assay: MIC, microdilution broth; type: cell-based, S. aureus
Method: as §1

[12] = system: MRSA clinical isolate SAU.447; assay: MIC, microdilution broth; type: cell-based, S. aureus; details: Staphylococcus aureus
Method: as §1

[13] = system: MRSA clinical isolate SAU.446; assay: MIC, microdilution broth; type: cell-based, S. aureus; details: Staphylococcus aureus
Method: as §1

[14] = system: MRSA clinical isolate SAU.3021; assay: MIC, microdilution broth; type: cell-based, S. aureus
Method: as §1

[15] = system: MRSA clinical isolate SAU.2996; assay: MIC, microdilution broth; type: cell-based, S. aureus
Method: as §1

[16] = system: MRSA clinical isolate SAU.3025; assay: MIC, microdilution broth; type: cell-based, S. aureus; details: Staphylococcus aureus
Method: as §1

[17] = system: MRSA clinical isolate SAU.555; assay: MIC, microdilution broth; type: cell-based, S. aureus; details: Staphylococcus aureus
Method: as §1

[18] = system: MRSA clinical isolate SAU.1118; assay: MIC, microdilution broth; type: cell-based, S. aureus; details: Staphylococcus aureus
Method: as §1

[19] = system: MRSA clinical isolate SAU.42; assay: MIC, microdilution broth; type: cell-based, S. aureus; details: Staphylococcus aureus
Method: as §1

[20] = system: MRSA clinical isolate SAU.3026; assay: MIC, microdilution broth; type: cell-based, S. aureus
Method: as §1

[21] = system: MRSA clinical isolate SAU.669; assay: MIC, microdilution broth; type: cell-based, S. aureus; details: Staphylococcus aureus
Method: as §1

[22] = system: MRSA clinical isolate SAU.846; assay: MIC, microdilution broth; type: cell-based, S. aureus
Method: as §1

[23] = system: MRSA clinical isolate SAU.3024; assay: MIC, microdilution broth; type: cell-based, S. aureus; details: Staphylococcus aureus
Method: as §1

A. baumannii KB349 [24] = details: starred: previously determined; cited from earlier work
A. baumannii KB304 [25] = details: starred: previously determined; cited from earlier work
Enterococcus ATCC 19433 = assay: organism not typed; type: cell-based, E. faecalis
Enterococcus ATCC 29212 = assay: organism not typed; type: cell-based, E. faecalis
[26] = system: low level CIP resistant strains of S. aureus ATCC 29213 (ParC mutation); assay: microbe, parasite or virus in culture; type: cell-based; details: Staphylococcus aureus, ATCC29213
[27] = system: VRE clinical isolate S557; assay: organism not typed; type: cell-based, E. faecium; details: read-out: MIC
MRSA clinical isolates = assay: Panel of MRSA clinical isolates (FIG. 2A); type: cell-based, S. aureus; details: n=21, in words
[28] = system: VRE clinical isolate S206; assay: organism not typed; type: cell-based, E. faecalis
Method: (§2) QRDR mutations were determined as described in the text using primers (primer sequences can be found in Table 7).
as §1

physchem [29] = details: pH 7.4 PBS; three replicates ± SEM
Method: Enough PBS was added to make a 1 mg/mL solution. Compounds were then assessed by LC-MS and compared to a calibration curve to determine the solubility. […] Data shown is from three independent replicates±SEM. […] Between DMSO additions, the vial was vortexed and sonicated.
The compound was vortexed for ˜30 seconds before being placed into a bath sonicator (Cole Parmer, ultrasonic cleaner) for 1 h. […] The tubes were vortexed again for 30 s before being centrifuged at maximum speed (13,000×g) for 10 minutes. The supernatant was then filtered through a 0.22 μm syringe filter (Millipore Millex MP). […] Three independent replicates of each compound were performed. A calibration curve for each compound was generated from 1-400 μM by dissolving the compound in DMSO and making dilutions of the stock in DMSO. […] The concentration of the samples was calculated based on the calibration curves.

[30] = system: S. aureus 29213 (WT GyrA and WT ParC); assay: microbe, parasite or virus in culture; type: cell-based; details: Staphylococcus aureus; WT GyrA and WT ParC; read-out: MIC against S. aureus 29213
Method: as §1

[31] = system: VRE clinical isolate C28036; assay: microbe, parasite or virus in culture; type: cell-based, Ent. Spp.; details: Enterococcus
Method: as §2, §1

physchem [32] = details: organic solvent or mixture, thermodynamic from solid
[33] = system: VRE clinical isolate S234; assay: organism not typed; type: cell-based, E. faecalis; details: read-out: MIC
P. aeruginosa PAO1 = assay: microbe, parasite or virus in culture; type: cell-based; details: Pseudomonas aeruginosa, gyrA none, parC none
Method: (§3) E. coli MG1655 and the ΔAcrB strain were obtained from Prof. Cari Vanderpool at UIUC.
as §1

E. coli ATCC 25922 = assay: microbe, parasite or virus in culture; type: cell-based; details: Escherichia coli, ATCC25922, gyrA none, parC none
Method: as §3, §1

A. baumannii ATCC 19606 = assay: microbe, parasite or virus in culture; type: cell-based; details: Acinetobacter baumannii, ATCC19606, gyrA none, parC none
Method: as §3, §1

[34] = system: MRSA clinical isolate SAU.708; assay: microbe, parasite or virus in culture; type: cell-based, S. aureus; details: Staphylococcus aureus, read-out: MIC
Method: as §1

A. baumannii KB349 [35] = assay: MIC, microdilution broth; type: cell-based; details: Acinetobacter baumannii
Method: as §3, §1

A. baumannii KB304 [36] = assay: MIC, microdilution broth; type: cell-based; details: Acinetobacter baumannii
Method: as §3, §1

PA1586 = assay: MIC, microdilution broth; type: cell-based, P. aeruginosa; details: Pseudomonas aeruginosa
Method: as §3, §1

VRE clinical isolate D1 = assay: organism not typed; type: cell-based, E. faecium; details: read-out: MIC
[37] = system: VRE clinical isolate C27282; assay: organism not typed; type: cell-based, E. faecium
Method: as §2, §1

[38] = system: VRE clinical isolate U503; assay: organism not typed; type: cell-based, E. faecium
Method: as §2, §1

[39] = system: VRE clinical isolate C21190; assay: organism not typed; type: cell-based, E. faecium
Method: as §2, §1

[40] = system: VRE clinical isolate U464; assay: organism not typed; type: cell-based, E. faecium
Method: as §2, §1

[41] = system: VRE clinical isolate U563; assay: organism not typed; type: cell-based, E. faecium
Method: as §2, §1

VRE clinical isolate S34 = assay: organism not typed; type: cell-based, E. faecium
Method: as §2, §1

VRE clinical isolate S51 = assay: organism not typed; type: cell-based, E. faecium
Method: as §2, §1

[42] = system: VRE clinical isolate S235; assay: organism not typed; type: cell-based, E. faecium
Method: as §2, §1

[43] = system: VRE clinical isolate S226; assay: organism not typed; type: cell-based, E. faecium
Method: as §2, §1

[44] = system: VRE clinical isolate U275; assay: organism not typed; type: cell-based, E. faecium
Method: as §2, §1

VRE clinical isolate U63 = assay: organism not typed; type: cell-based, E. faecium
Method: as §2, §1

VRE clinical isolates = assay: Panel of VRE clinical isolates (FIG. 2B); type: cell-based, Enterococcus; details: n=22, in words
[45] = Staphylococcus aureus, MRSA, read-out: MIC

## CC1(C)S[C@@H]2[C@H](NC(=O)[C@H](N)c3ccccc3)C(=O)N2[C@H]1C(=O)O [Amp, Ampicillin, reference compound]
[1]
  MIC: >64 µg/mL
[2]
  MIC: > 64 µg/mL
[3]
  MIC: > 64 µg/mL
[4]
  MIC: > 64 µg/mL
[5]
  MIC: > 64 µg/mL
[6]
  MIC: > 64 µg/mL
[7]
  MIC: > 64 µg/mL
[8]
  MIC: > 64 µg/mL
[9]
  MIC: > 64 µg/mL
[10]
  MIC: > 64 µg/mL
[11]
  MIC: >64 µg/mL
[12]
  MIC: > 64 µg/mL
[13]
  MIC: > 64 µg/mL
[14]
  MIC: >64 µg/mL
[15]
  MIC: >64 µg/mL
[16]
  MIC: 64 µg/mL (≈ 183 µM)
[17]
  MIC: > 64 µg/mL
[18]
  MIC: > 64 µg/mL
[19]
  MIC: 2 µg/mL (≈ 5.72 µM)
[20]
  MIC: >64 µg/mL
[21]
  MIC: > 64 µg/mL
[22]
  MIC: >64 µg/mL
[23]
  MIC: > 64 µg/mL

## O=C(O)c1cn(C2CC2)c2cc(N3CCNCC3)c(F)cc2c1=O [CIP, ciprofloxacin, reference compound]
A. baumannii KB349 [24]
  CIP MIC: >32* μg mL^−1
A. baumannii KB304 [25]
  CIP MIC: 24* ^ μg mL^−1
Enterococcus ATCC 19433
  MIC: 2 µg/mL (≈ 6.04 µM)
Enterococcus ATCC 19433; ATCC 19433
  CIP (S/I/R): S (sensitive (S) if it had an MIC≤4 μg mL^−1)
Enterococcus ATCC 29212
  MIC: 0.5 to 2 µg/mL (≈ 1.51 to 6.04 µM)
Enterococcus ATCC 29212; ATCC 29212
  CIP (S/I/R): S (sensitive (S) if it had an MIC≤4 μg mL^−1)
[26]
  MIC: 4 to 8 µg/mL (≈ 12.1 to 24.1 µM)

## CCCn1c(=O)cc(C)c2cc3c(C)cc(=O)n4c3c(c21)OC4 [DNM-8]
[27]
  MIC: 0.5 µg/mL (≈ 1.61 µM)
Enterococcus ATCC 19433; ATCC 19433, E. faecalis, gyrA WT, parC WT, read-out: MIC
  MIC: 16 µg/mL (≈ 51.6 µM)
MRSA clinical isolates
  sensitivity of MRSA clinical isolates: sensitive
[28]
  MIC: 4 µg/mL (≈ 12.9 µM)
Enterococcus ATCC 29212; ATCC 29212, E. faecalis, gyrA WT, parC WT, read-out: MIC
  MIC: 8 µg/mL (≈ 25.8 µM)
Physchem [29]
  Solubility in pH 7.4 PBS: 68 μM
[30]
  MIC: 16 µg/mL (≈ 51.6 µM)
[31]
  MIC: 1 µg/mL (≈ 3.22 µM)
Physchem [32]
  solubility: 11.3 mM (≈ 3510 µg/mL)
[33]
  MIC: 0.5 µg/mL (≈ 1.61 µM)
P. aeruginosa PAO1
  MIC: > 32 µg/mL
E. coli ATCC 25922
  MIC: > 32 µg/mL
A. baumannii ATCC 19606
  MIC: > 32 µg/mL
[2]
  MIC: 0.25 µg/mL (≈ 0.806 µM)
[3]
  MIC: 0.25 µg/mL (≈ 0.806 µM)
[4]
  MIC: 0.25 µg/mL (≈ 0.806 µM)
[5]
  MIC: 0.25 µg/mL (≈ 0.806 µM)
[6]
  MIC: 0.5 µg/mL (≈ 1.61 µM)
[7]
  MIC: 0.25 µg/mL (≈ 0.806 µM)
[9]
  MIC: 0.25 µg/mL (≈ 0.806 µM)
[10]
  MIC: 0.125 µg/mL (≈ 0.403 µM)
[34]
  MIC: 1 µg/mL (≈ 3.22 µM)
A. baumannii KB349 [35]
  MIC: > 32 µg/mL
A. baumannii KB304 [36]
  MIC: > 32 µg/mL
PA1586
  MIC: > 32 µg/mL
VRE clinical isolate D1
  MIC: 0.5 µg/mL (≈ 1.61 µM)
[11]; [45]
  MIC: 0.25 µg/mL (≈ 0.806 µM)
[14]; [45]
  MIC: 0.125 µg/mL (≈ 0.403 µM)
[17]
  MIC: 0.5 µg/mL (≈ 1.61 µM)
[20]; [45]
  MIC: 0.25 µg/mL (≈ 0.806 µM)
[37]
  MIC: 8 µg/mL (≈ 25.8 µM)
[38]
  MIC: 4 µg/mL (≈ 12.9 µM)
[39]
  MIC: 8 µg/mL (≈ 25.8 µM)
[40]
  MIC: 2 µg/mL (≈ 6.44 µM)
[41]
  MIC: 4 µg/mL (≈ 12.9 µM)
VRE clinical isolate S34
  MIC: 2 µg/mL (≈ 6.44 µM)
VRE clinical isolate S51
  MIC: 1 µg/mL (≈ 3.22 µM)
[42]
  MIC: 1 µg/mL (≈ 3.22 µM)
[43]
  MIC: 1 µg/mL (≈ 3.22 µM)
[44]
  MIC: 4 µg/mL (≈ 12.9 µM)
VRE clinical isolate U63
  MIC: 4 µg/mL (≈ 12.9 µM)
VRE clinical isolates
  sensitivity of VRE clinical isolates: sensitive
